This note sets out measurements from PubChem BioAssay (NCI).

Test systems include UACC-62 melanoma; RXF-631 renal; SK-MEL-2 melanoma; DMS 273 small cell lung; A549 NSCLC; NCI-H460 lung; 786-0 renal; LXFL 529 NSCLC; MOLT-4 leukemia; RXF 393 renal.
What all share (test): NCI tumour cell line growth inhibition, 48 h

Each structure is given as a SMILES string.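 Grown in 96-well plates, cells were treated for 48 hours with each compound at five concentrations. Insufficient inhibition: endpoint recorded as highest concentration tested. The concentration for 50% growth inhibition is given as GI50. TGI: concentration producing complete growth inhibition.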 Bounds are passed on as bounds.

Turning to `CC1=NOC(=O)/C1=C/c1ccccc1O`, the TGI in the assay with UACC-62 melanoma, in the assay with RXF-631 renal, with SK-MEL-2 melanoma, in the assay with DMS 273 small cell lung, in the assay on A549 NSCLC and in the assay on NCI-H460 lung was above 100 µM throughout. Also, the TGI in the assay with 786-0 renal, in the assay with LXFL 529 NSCLC and in the assay on MOLT-4 leukemia was above 100 µM throughout.
For the molecule `c1cc(-c2cn3ccsc3n2)ccn1`, the TGI in the assay with UACC-62 melanoma, in the assay on RXF-631 renal, in the assay with SK-MEL-2 melanoma, in the assay on DMS 273 small cell lung, in the assay with A549 NSCLC and in the assay with NCI-H460 lung was above 100 µM throughout. In addition, the TGI in the assay with 786-0 renal, with LXFL 529 NSCLC and with MOLT-4 leukemia was above 100 µM throughout.
For `COCCN1C2=CCCCC2=Nc2c1nc(N)[nH]c2=O`, the TGI in the assay with RXF 393 renal, in the assay on UACC-62 melanoma, with RXF-631 renal, in the assay on DMS 273 small cell lung, in the assay with A549 NSCLC and in the assay with NCI-H460 lung was above 100 µM throughout. For the same molecule, the TGI in the assay on 786-0 renal, with LXFL 529 NSCLC and in the assay with MOLT-4 leukemia was above 100 µM in each case.
For `CN(C(=O)C12C3C4C5C3C1(C(=O)O)C5C42)C(C)(C)C` (configuration not stated), the TGI in the assay with UACC-62 melanoma is above 100 µM; in the assay on RXF-631 renal, above 100 µM; with SK-MEL-2 melanoma, above 100 µM; in the assay with DMS 273 small cell lung, 33.5 µM; in the assay with A549 NSCLC, above 100 µM; in the assay with NCI-H460 lung, above 100 µM. Moreover, the TGI in the assay on 786-0 renal, in the assay with LXFL 529 NSCLC and in the assay on MOLT-4 leukemia was above 100 µM each time.
Take `O=C(O)c1ccc([Se][Se]c2ccc(C(=O)O)cc2)cc1`: the TGI in the assay with RXF 393 renal is 52.9 µM; in the assay with UACC-62 melanoma it was 33.4 µM; in the assay with RXF-631 renal, 52.6 µM; in the assay with SK-MEL-2 melanoma, 63.2 µM; with DMS 273 small cell lung it was 49.7 µM; in the assay on A549 NSCLC, above 100 µM. Moreover, the TGI is 54.9 µM with NCI-H460 lung, above 100 µM in the assay with 786-0 renal and 62.4 µM with LXFL 529 NSCLC.
On to `Cc1cccc(NC(=O)CC(=O)N2N=C(N(CCC#N)c3ccc(Cl)cc3)CC2c2ccccc2)c1` (configuration not stated), for which the TGI in the assay on RXF 393 renal, in the assay with UACC-62 melanoma, with RXF-631 renal, with DMS 273 small cell lung, in the assay with A549 NSCLC and with NCI-H460 lung was above 100 µM throughout. Moreover, the TGI in the assay with 786-0 renal, in the assay on LXFL 529 NSCLC and in the assay on MOLT-4 leukemia was above 100 µM throughout.
On to `COC(=O)CCC1CCc2c(OC)ccc(O)c2C1=O` (configuration not stated), for which the TGI in the assay on RXF 393 renal, with UACC-62 melanoma, in the assay with RXF-631 renal, in the assay with SK-MEL-2 melanoma, in the assay on DMS 273 small cell lung and in the assay with A549 NSCLC was above 100 µM in each case. Further, the TGI in the assay on NCI-H460 lung, in the assay with 786-0 renal, in the assay with LXFL 529 NSCLC and with MOLT-4 leukemia was above 100 µM each time.
Regarding `Cc1cc(N(CCC#N)S(=O)(=O)c2ccccc2)ccc1/C=C1N=C(/C=C/c2ccccc2)OC\1=O`, the TGI in the assay on RXF 393 renal, in the assay on UACC-62 melanoma, in the assay with SK-MEL-2 melanoma, with DMS 273 small cell lung, in the assay with A549 NSCLC and with NCI-H460 lung was above 100 µM each time. The TGI in the assay on 786-0 renal, in the assay with LXFL 529 NSCLC and in the assay on MOLT-4 leukemia was above 100 µM each time.
With `N#C/C(=C1\OC(=O)C(c2ccc(Br)cc2)=C1O)c1ccc(Br)cc1`, the TGI with RXF 393 renal was 26.7 µM; in the assay on UACC-62 melanoma, 25.9 µM; in the assay on RXF-631 renal it was 92.6 µM; in the assay on DMS 273 small cell lung, 48.2 µM; in the assay on A549 NSCLC, 44.2 µM; in the assay on NCI-H460 lung it was 30.4 µM. Besides, the TGI with 786-0 renal worked out at 27.9 µM; with LXFL 529 NSCLC, 22.1 µM; in the assay on MOLT-4 leukemia it was 57.1 µM.
Turning to `C=C1C(=O)O[C@H]2[C@H]1[C@H](OC(=O)/C(C)=C\C)CC(=C)[C@@H]1[C@H](O)[C@H]3O[C@@]3(C)[C@@]12O`, the TGI in the assay on UACC-62 melanoma, in the assay on RXF-631 renal, in the assay on SK-MEL-2 melanoma, in the assay on DMS 273 small cell lung, in the assay on A549 NSCLC and with NCI-H460 lung was above 100 µM in each case. Moreover, the TGI in the assay with 786-0 renal and in the assay with LXFL 529 NSCLC was above 100 µM each time.
Take `O=C([O-])c1ccccc1Nc1ccccn1.O=C([O-])c1ccccc1Nc1ccccn1.[Ni+2]`: the GI50 in the assay with RXF 393 renal, in the assay with UACC-62 melanoma, in the assay with SK-MEL-2 melanoma, in the assay with A549 NSCLC, in the assay on NCI-H460 lung and in the assay with 786-0 renal was above 100 µM throughout. Moreover, the GI50 is 55.2 µM in the assay on LXFL 529 NSCLC and 89.8 µM with MOLT-4 leukemia. The TGI in the assay on RXF 393 renal, with UACC-62 melanoma, in the assay on SK-MEL-2 melanoma, with A549 NSCLC, in the assay with NCI-H460 lung and in the assay on 786-0 renal was above 100 µM each time. Moreover, the TGI in the assay on LXFL 529 NSCLC and in the assay on MOLT-4 leukemia was above 100 µM throughout.
`Cc1ccc(C(=O)O/N=C2/CCC/C2=C\c2ccccc2)cc1`: the TGI in the assay on RXF 393 renal, with UACC-62 melanoma, in the assay with SK-MEL-2 melanoma, in the assay with DMS 273 small cell lung, with A549 NSCLC and with NCI-H460 lung was above 100 µM each time. The TGI in the assay on 786-0 renal, in the assay with LXFL 529 NSCLC and in the assay on MOLT-4 leukemia was above 100 µM in each case.
On to `C=CCC1([C@H](C)[C@@H](OC(C)=O)c2cc(OC)c(OC)c(OC)c2)C[C@@H](OC)CCC1=O` (some centres not stated), for which the TGI in the assay with RXF 393 renal stood at 26.6 µM; with UACC-62 melanoma it was 34.9 µM; in the assay on SK-MEL-2 melanoma, 38.9 µM; with A549 NSCLC, 77.5 µM; in the assay on NCI-H460 lung it was 62.4 µM; in the assay on 786-0 renal, 26.7 µM. Moreover, the results for the TGI with LXFL 529 NSCLC and in the assay with MOLT-4 leukemia were 31.2 µM and 94.3 µM, respectively.
On to `CNS(=O)(=O)NN(C)S(=O)(=O)c1ccc(F)cc1`, for which the TGI in the assay on RXF 393 renal, in the assay on UACC-62 melanoma, in the assay with SK-MEL-2 melanoma, in the assay with DMS 273 small cell lung, in the assay on A549 NSCLC and in the assay on NCI-H460 lung was above 100 µM each time. Besides, the TGI with 786-0 renal, with LXFL 529 NSCLC and in the assay on MOLT-4 leukemia was above 100 µM each time.
